Assay results: US11365215B2, “Method for preventing, improving, or treating inflammatory bowel disease” (Research & Business Foundation Sungkyunkwan University, priority 2015, dated 2022)
Peptide text beside a SMILES is read from it.

Experiments:
BRE (BMP6 signaling) = assay: BRE-Luc reporter assay in Raw 264.7 cells treated with BMP6; type: cell-based; conditions: 100 ng/mL BMP6 two hours
Experimental: Specifically, 5×NF-κB-Luc reporter plasmid, SBE-Luc reporter plasmid, and BRE-Luc reporter plasmid were individually transfected into Raw 264.7 macrophage cells. After 24 hours, the cells transfected with the NF-κB-Luc reporter plasmid were treated with 100 ng/mL of LPS, the cells transfected with the SBE-Luc reporter plasmid were treated with 5 ng/mL of TFG-β1, and the cells transfected with the BRE-Luc reporter plasmid were treated with 100 ng/mL of BMP6 for two hours.

[1] = test system: inflammatory signaling pathway protein complex mediated by MyD88 or RIP1; assay: Immunoprecipitation of inflammatory signaling pathway protein complex in LPS-treated RAW264.7 cells; type: cell-based; conditions: pretreated, then LPS
Excerpt: Specifically, using antibodies corresponding to proteins which relate to the formation of Toll-like receptors (TLRs) signaling pathway protein complex (for example, IRAK1, TRAF6, MyD88, RIP1 and Pellino-1), disruption of the formation of inflammatory signaling pathway protein complexes was affirmed by immunoprecipitation. As reference control, a relative amount of expression of β-actin from the total cell lysate was compared and presented using Western blot.
RAW264.7 macrophage cells were individually retreated with compound 1.1 (SEQ ID NO: 2) and compound 1.2, and smaducin-6, and further treated with LPS. These RAW264.7 macrophage cells were collected, lysed in a lysis butter (PBS containing 0.5% Triton X-100, 20 mM HEPES (pH 7.4), 150 mM NaCl, 12.5 mM β-glycerol phosphate, 1.5 mM MgCl2, 10 mM NaF, 2 mM DTT, 1 mM Na3O4V, 2 mM EGTA, and 1 mM Protease Inhibitor (PMSF)), and centrifuged at 13000 rpm for 10 minutes. For immunoprecipitation assays, the supernatant was incubated at 4° C. for 12 hours, with protein-A agarose beads and the antibodies corresponding to the above proteins, and the beads were subsequently washed three times with the lysis buffer. The immunoprecipitated substances were dissociated from the beads with addition of 2× sample buffer, and were boiled. The prepared samples were loaded on SDS-polyacrylamide gel (FIG. 7).

[2] = test system: DSS-induced chronic colitis; assay: Disease activity index in DSS-induced chronic colitis model; type: in vivo, Mice (C57BL/6); conditions: mice
Experimental: Mice (7-8 weeks, female, C57BL/6) were fed 2% DSS polymer (MW of about 50000 Da) in drinking water for 5-7 days, and colitis was induced every 2 to 15 days. Compound 1.1 (SEQ ID NO: 2) was then administered orally to the mice, which had induced chronic colitis by DSS, in an amount of 50 mg/kg, 100 mg/kg, 200 mg/kg and 400 mg/kg, respectively, from the third day after feeding DDS, daily, for 11 days. Body weights, diarrhea and hemafecia of the mice were checked daily and the disease activity indexes were measured (FIG. 10).

[3] = test system: chemokines (CCL20, CCL2 and CX3CL1); assay: Chemokine expression in large intestine tissues of DSS chronic colitis mice (Real-Time PCR); type: in vivo; conditions: oral 100 mg/kg daily for 10 days, sulfasalazine 500 mg/kg as comparison
Experimental: Meanwhile, as shown in FIGS. 11B-11D, mice suffering from chronic colitis induced by DSS were orally administered sulfasalazine in an amount of 500 mg/kg and compound 1.1 (SEQ ID NO: 2) in an amount of 100 mg/kg daily for 10 days. After 10 days of administration, large intestine tissues were obtained from the mice, and expression of chemokines (CCL20, CCL2 and CX3CL1) in the tissues was measured using real-time polymerase chain reaction (Real-Time PCR) as described above.

[4] = Plasma concentration / pharmacokinetics after intravenous and oral administration; type: in vivo, Male SD rat
Experimental: Compound 1.1 (SEQ ID NO: 2) was administered to a rat intravenously (I.V., 5 mg/kg) or orally (50 mg/kg), and 24 hours after administration, the concentration of compound 1.1 (SEQ ID NO: 2) in plasma was measured (FIG. 18 and FIG. 19).

AP-1 = assay: AP-1-Luc reporter luciferase assay in LPS-treated RAW 246.7 cells; type: cell-based; conditions: 100 nM for 30 minutes, LPS 100 ng/ml 2 hours
Experimental: RAW 246.7 macrophage cells were transfected with AP-1-Luc reporter plasmid as described in Example 2.3. After 24 hours, the transfected cells with AP-1-Luc reporter plasmid were pretreated with compound 1.1 (SEQ ID NO: 2) (100 nM), IRAK1/4 inhibitor (25 μM), and smaducin-6 (100 nM) for 30 minutes, and then further treated with LPS (100 ng/ml) for 2 hours.

septicemia (CLP model) = assay: Cecal ligation and puncture (CLP) septicemia model; type: in vivo; conditions: CLP mice; hypodermic 1 mg/kg, 2 hours after CLP, 12 hour intervals, three times
Excerpt: To confirm the effects of compound 1.1 (SEQ ID NO: 2) on septicemia, 10 mice in each group (7-week old, male) were anesthetized, and thereafter, the appendicies were exposed by incision of abdomen. The lower portion of ileocecal valve of the exposed appendix was tied and a single hole was made by using a 22 gage syringe needle. The treated appendix was reinserted into the abdominal cavity, and grafted using thread to obtain a septicemia-induced mice model (cecal ligation and pucture model, CLP model). Experimental methods were described in EMBO Mol Med. (2015) Mar. 12; 7(5):577-92, which is incorporated herein by reference.
Compound 1.1 (SEQ ID NO: 2) was hypodermically injected to the treated mice at dose of 1 mg/kg, after 2 hours from the CLP procedure, with 12 hour intervals, three times. As reference control, smaducin-6 was hypodermically injected at dose of 12 mg/kg as same method used for compound 1.1 (SEQ ID NO: 2). Survival rates of the mice from each group were measured (FIG. 29). Sham comparative group was not treated after incision of abdomen and anastomosis, CLP+PBS comparative group was treated with phosphate buffered saline (PBS) instead of drug compound after cecal ligation and puncture model was prepared. […]

[5] = plasma, iv, Male SD rat, single dose 5 mg/kg (i.v.)

With `CCCCCCCCCCCCCCCC(=O)N1CCC[C@H]1C(=O)N1CCC[C@H]1C(=O)NCC(=O)N[C@@H](Cc1ccc(O)cc1)C(=O)O` [compound 1.1, (S)-3-(4-hydroxyphenyl)-2-(2-((S)-1-((S)-1-palmitoylpyrrolidine-2-carbonyl)pyrrolidine-2-carboxamido)acetamido)propanoic acid] (HELM PEPTIDE1{[CCCCCCCCCCCCCCCC(=O)[*:2]].P.P.G.Y}$$$$V2.0) the “activation of BRE induced by BMP6 treatment” value (BRE (BMP6 signaling)) was “not inhibited”, the “formation of inflammatory signaling pathway protein complex mediated by MyD88 or RIP1” value [1] was “disrupted” and the “disease activity (disease activity index score)” value ([2]; oral 50, 100, 200, 400 mg/kg daily for 11 days) was “decreased as the dose increased”. The “dose at which the decrease in disease activity was saturated” value ([2]; oral daily for 11 days) was 200 mg/kg, the “expression of chemokines (CCL20, CCL2 and CX3CL1) in large intestine tissues” value [3] was “effective chemokine blockers” and the AUC(0-t) [4, 5] was 2140 ng·h/mL. The Cmax [4, 5] was 6020 ng/mL, the Tmax [4, 5] was 4.8 min and the clearance [4, 5] was 45 mL/min/kg. The Vd ([4]; plasma, iv, Male SD rat, single dose 5 mg/kg (i.v.), read-out: Vss) was 5.4 ± 1 L/kg, the Tmax ([4]; plasma, po, Male SD rat, single dose 50 mg/kg (p.o.)) was 0 min and the “time within which the concentration decreased to 1/100 of the initial concentration” value ([4]; rat, intravenous 5 mg/kg) was 1 to 2 h. The “concentration detected in blood” value ([4]; rat, intravenous 5 mg/kg, within 8 hours from the administration) was “very low concentration”, the detection in blood ([4]; rat, oral 50 mg/kg, after 30 minutes from the oral administration) was “not detected” and the “AP-1-Luc luciferase activity (MAPK signaling pathway)” value (AP-1) was “did not suppress MAPK signaling pathways”. The survival rate (septicemia (CLP model)) was 60%.
